Test results taken from article PMC12524408 (International Journal of Molecular Sciences, 2025).

Assays:
Type in all cases: in vivo, mouse
DSS-induced colitis [1] = assay: Dose-dependent study of intravenous PEG-AM in DSS-induced colitis (Study No. P170454); conditions: 1, 5, 25 nmol/kg single i.v. one day before 3% DSS (MW 5000); vs vehicle; n = 10 per group
Method: We examined the effects of intravenous administration of PEG-AM on DSS-induced colitis, as per the experimental design in Figure 4a. PEG-AM was administered one day before DSS exposure to evaluate its prophylactic effect against colitis onset and progression.  Figure 4 Dose-dependent effects of intravenous PEG-AM administration in DSS-induced colitis (Study No. P170454). (a) Overview of the experimental design. Groups: vehicle (n = 10), PEG-AM 1 nmol/kg (n = 10), 5 nmol/kg (n = 10), 25 nmol/kg (n = 10). (b) Total inflammation scores on day 8. (c) Colon length. (d) Colon weight-to-length ratio. (e) PEG-AM plasma concentrations on day 8. To evaluate the pharmacological effects of PEG-AM, three animal studies were conducted by the LSI Medience Corporation following the Animal Welfare Act and institutional approval. Seven-week-old male C57BL/6J JCL mice (CLEA Japan, Inc., Tokyo, Japan) were used in all studies and were housed under pathogen-free conditions. Colitis was induced with 3% (w/v) DSS (MW 5000) in drinking water for seven days. PEG-AM (1.0, 5.0, and 25 nmol/kg) or saline (control) was administered intravenously one day before DSS treatment. Each group included 10 mice. Stool consistency, bleeding, and body weight were evaluated on days −1, 0, 3, 5, and 7. A total inflammation score was calculated. Mice were anesthetized with 3% isoflurane (Zoetis Japan, Tokyo, Japan), and the colon was excised on day 7.

DSS-induced colitis [2] = assay: Effect of 25 nmol/kg PEG-AM in DSS-induced colitis (Study No. P180567); conditions: 25 nmol/kg single i.v. one day before DSS, vs control, n = 20
Text: The detailed rationale for this choice is provided in the Discussion. Two groups (control and treatment with 25 nmol/kg PEG-AM) were compared, each consisting of 20 animals.  Figure 5 Effect of 25 nmol/kg PEG-AM in DSS-induced colitis (Study No. P180567). (a) Overview of the experimental design. Groups: vehicle (n = 20), PEG-AM 25 nmol/kg (n = 20). (b) Total inflammation scores on day 8. ** p < 0.01, Mann–Whitney U test. (c) Bloody stool scores on day 8, *** p < 0.001, Mann–Whitney U test. (d) Colon length. (e) Colon weight-to-length ratio, ** p < 0.01, unpaired t-test. (f) PEG-AM plasma concentrations on day 8. (g–j) Fold changes in gene expression of RAMP1 (g), RAMP2 (h), RAMP3 (i), and CLR (j). * p < 0.05, unpaired t-test. To evaluate the pharmacological effects of PEG-AM, three animal studies were conducted by the LSI Medience Corporation following the Animal Welfare Act and institutional approval. Seven-week-old male C57BL/6J JCL mice (CLEA Japan, Inc., Tokyo, Japan) were used in all studies and were housed under pathogen-free conditions. Colitis was induced with 3% (w/v) DSS (MW 5000) in drinking water for seven days. PEG-AM (1.0, 5.0, and 25 nmol/kg) or saline (control) was administered intravenously one day before DSS treatment. Each group included 10 mice. Stool consistency, bleeding, and body weight were evaluated on days −1, 0, 3, 5, and 7. A total inflammation score was calculated. Mice were anesthetized with 3% isoflurane (Zoetis Japan, Tokyo, Japan), and the colon was excised on day 7. Following the protocol described in Section 4.6.1, this study was conducted to confirm the efficacy of 25 nmol/kg intravenous PEG-AM. Each treatment group consisted of 20 mice.

RAMP1, RAMP2, RAMP3, CLR = assay: Gene expression of receptor components in distal colon, Study No. P180567; conditions: 25 nmol/kg i.v., qPCR, 2^-ΔΔCt, GAPDH normalization, vs control
Text: Figure 5 Effect of 25 nmol/kg PEG-AM in DSS-induced colitis (Study No. P180567). (a) Overview of the experimental design. Groups: vehicle (n = 20), PEG-AM 25 nmol/kg (n = 20). (b) Total inflammation scores on day 8. ** p < 0.01, Mann–Whitney U test. (c) Bloody stool scores on day 8, *** p < 0.001, Mann–Whitney U test. (d) Colon length. (e) Colon weight-to-length ratio, ** p < 0.01, unpaired t-test. (f) PEG-AM plasma concentrations on day 8. (g–j) Fold changes in gene expression of RAMP1 (g), RAMP2 (h), RAMP3 (i), and CLR (j). * p < 0.05, unpaired t-test.
After measuring colon length and weight, distal colon tissue was collected, immersed in RNAlater (Thermo Fisher Scientific K.K.), and stored at −80 °C until RNA extraction. Total RNA was extracted using the RNeasy Micro Kit (Qiagen, Singapore) and quantified using a DeNovix DS-11 Microvolume Spectrophotometer. cDNA was synthesized from 2 μg of total RNA using a high-capacity cDNA Reverse Transcription Kit (Thermo Fisher Scientific K.K.). Quantitative PCR was performed using the StepOnePlus Real-Time PCR System (Applied Biosystems, Waltham, MA, USA) and TaqMan Gene Expression Assays for mouse RAMP1, RAMP2, RAMP3, CLR (CALCRL), and GAPDH (internal control). […]
All reactions were performed in duplicate. Relative expression levels were calculated using the 2^−ΔΔCt method with GAPDH normalization.

40 kDa PEGylated adrenomedullin [PEG-AM]
Colon length (DSS-induced colitis [1]): comparable across all groups
Colon weight per unit length (DSS-induced colitis [1]): no significant differences
Total inflammation score on day 8 (DSS-induced colitis [1]): no statistically significant differences
Bloody stool score on day 8 (DSS-induced colitis [2]; p = 0.0008, Mann-Whitney U test): significantly lower
Colon weight per unit length (DSS-induced colitis [2]; p = 0.0024, unpaired t-test): significantly lower
Total inflammation score on day 8 (DSS-induced colitis [2]; p = 0.0062, Mann-Whitney U test): significantly lower
Colon length (DSS-induced colitis [2]; p = 0.1429, unpaired t-test): not significantly different
Gene expression of receptor components (RAMP1, RAMP2, RAMP3, CLR) (RAMP1, RAMP2, RAMP3, CLR): no downregulation
